We go through 1 substance from article PMC5410289, “Stable H3 peptide was delivered by gold nanorods to inhibit LSD1 activation and induce human mesenchymal stem cells differentiation” (Oncotarget, 2017).

The subject of the experiment is human BMSCs. The experiment is described as follows: RT-PCR of stemness, differentiation and hepatic marker genes in human BMSCs. The format is cell-based. The note with it: human MSCs, GAPDH as normalization, treated 2, 7 and 14 days, combination effect seen during 7 days. How it is done: The human BMSCs were treated with PBS as control, AuNRs, AuNRs-SP nanocomplex, HGF alone and AuNRs-SP nanocomplex+HGF respectively for 2 days, 7 days and 14 days (Figure 7). Consequently, the expression of stemness gene Oct4, differentiation gene Sox17 and two hepatic marker genes, AFP and ck19 in the human MSCs were analyzed by RT-PCR. Comparing with PBS-treated group and AuNRs-treated group, human MSCs were induced to differentiate by AuNRs-SP nanocomplex with the decreased Oct4 and increased Sox17 (Figure 7A and 7B).
After human BMSCs were treated with PBS, AuNRs, HGF, AuNRs-SP and AuNRs-SP+HGF for 14 days, total RNA was extracted using TRIzol (Invitrogen, Carlsbad, CA, USA) and was quantitated by Nano Drop 2000. 2 μg total RNA was reverse transcribed to cDNA using a reverse transcriptase kit (Takara, Japan) according to the manufacturer's instructions. The mRNA levels of the target genes were quantified by RT-PCR, using GAPDH as normalization. Primers used in this study: Oct4 forward 5′-GACAACAATGAGAACCTTCAG-3′ and reverse 5′-CTGGCGCCGGTTACAGAACCA-3′; Sox17 forward 5′-GAGCCAAGGGCGAGTCCCGTA-3′ and reverse 5′-CCTTCCACGACTTGCCCAGCA-3′; AFP forward 5′-AGCGAGGAGAAATGGTCCGG-3′ and reverse 5′-GGA CAT CTT CAC CAT GTG-3′; Ck19 forward 5′-GCACTACAGCCACTACTACAC-3′ and reverse 5′-CTC ATG CGC AGA GCC TGT-3′.

Turning to HGF: hepatocyte growth factor, the “expression of hepatic marker gene AFP (mRNA)” value was “could not change the expression of AFP and ck19 until 14 days”; the “expression of hepatic marker gene ck19 (mRNA)” value was “could not change the expression of AFP and ck19 until 14 days”.
